Patent US7262186B2, “Substituted pyrazolo[3,4-d] pyrimidinones as a mitotic kinesin inhibitor” (Merck & Co., Inc., priority 2001, dated 2007)

Target: T1, human KSP motor domain (KSP(367H)) (Homo sapiens, UniProt P52732)
T1 construct: were used to amplify the motor domain and the neck linker region; made in house; host or cells: E. coli BL21 (DE3), pRSETa vector
T1 sequence (P52732 18-359 limits assumed): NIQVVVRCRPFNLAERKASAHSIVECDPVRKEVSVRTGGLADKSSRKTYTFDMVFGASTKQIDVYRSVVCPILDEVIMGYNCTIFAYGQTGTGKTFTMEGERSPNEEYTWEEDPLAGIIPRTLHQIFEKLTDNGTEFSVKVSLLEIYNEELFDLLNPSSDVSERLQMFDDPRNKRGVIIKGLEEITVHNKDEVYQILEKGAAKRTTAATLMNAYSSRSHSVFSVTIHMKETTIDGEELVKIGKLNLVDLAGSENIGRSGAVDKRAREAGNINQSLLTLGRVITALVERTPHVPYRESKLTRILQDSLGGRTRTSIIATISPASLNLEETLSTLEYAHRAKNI
Assay: Kinesin ATPase in vitro assay
Assay type: biochemical
Conditions: microtubule-stimulated ATPase, 1 mM ATP, 23° C., quinaldine red/ammonium molybdate phosphate detection
Text: I. Kinesin ATPase In Vitro Assay
Cloning and Expression of Human Poly-histidine Tagged KSP Motor Domain (KSP(367H))
Plasmids for the expression of the human KSP motor domain construct were cloned by PCR using a pBluescript full length human KSP construct (Blangy et al., Cell, vol. 83, pp 1159-1169, 1995) as a template. The N-terminal primer 5′-[…] (SEQ.ID.NO.: 1) and the C-terminal primer 5′-[…] […] (SEQ.ID.NO.: 2) were used to amplify the motor domain and the neck linker region. The PCR products were digested with AseI and XhoI, ligated into the NdeI/XhoI digestion product of pRSETa (Invitrogen) and transformed into E. coli BL21 (DE3).
Cells were grown at 37° C. to an OD600 of 0.5. […]
The kinesin motor domain is incubated with microtubules, 1 mM ATP (1:1 MgCl2: Na-ATP), and compound at 23° C. in buffer containing 80 mM K-HEPES (pH 7.0), 1 mM EGTA, 1 mM DTT, 1 mM MgCl2, and 50 mM KCl. […] Free phosphate from the ATP hydrolysis reaction is measured via a quinaldine red/ammonium molybdate assay by adding 150 μl of quench C buffer containing a 2:1 ratio of quench A:quench B. Quench A contains 0.1 mg/ml quinaldine red and 0.14% polyvinyl alcohol; quench B contains 12.3 mM ammonium molybdate tetrahydrate in 1.15 M sulfuric acid. The reaction is incubated for 10 minutes at 23° C., and the absorbance of the phospho-molybdate complex is measured at 540 nm.

- IC50: ≤ 50 µM
Structure (SMILES): CCC(c1nc2[nH]nc(Br)c2c(=O)n1Cc1ccccc1)N(CCN(C)C)C(=O)c1ccc(Br)cc1 (stereo not shown) [1-5, N-[1-(5-benzyl-3-bromo-4-oxo-4,5-dihydro-1H-pyrazolo[3,4-d]pyrimidin-6-yl)propyl]-4-bromo-N-[2-(dimethylamino)ethyl]benzamide]
